PubChem BioAssay (NCI)
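96-well plates; 48 h exposure; 5 concentrations. Endpoints by linear interpolation between flanking doses. Not reached: highest tested concentration assigned. GI50 = concentration required for 50% inhibition of growth. TGI denotes the concentration required for complete inhibition of growth.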

Columns and labels:
Test in all cases: NCI anticancer screen, dose series, 48 h
[1] = tested on: HS 578T breast
[2] = tested on: DMS 114 small cell lung
[3] = tested on: DMS 273 small cell lung
[4] = tested on: KM20L2 colon
[5] = tested on: LXFL 529 NSCLC
[6] = tested on: M19-MEL melanoma
[7] = tested on: RXF-631 renal
[8] = tested on: XF 498 CNS
[9] = tested on: MDA-N

| Structure (SMILES) | GI50 [1] [µM] | TGI [1] [µM] | TGI [2] [µM] | TGI [3] [µM] | TGI [4] [µM] | TGI [5] [µM] | TGI [6] [µM] | TGI [8] [µM] | further results |
| --- | --- | --- | --- | --- | --- | --- | --- | --- | --- |
| C=CC(=O)N1CC2(CCN(c3nc(OC4CCN(CCCOC)CC4)nc4c(OCC(F)(F)F)c(-c5c(C)ccc6[nH]ncc56)c(C5CC5)cc34)CC2)C1 | 2.91 | 13.3 | – | – | – | – | – | – | – |
| Oc1ccc(NCc2nc3ccccc3[nH]2)cc1 | 15 | 79.2 | – | – | – | – | – | – | – |
| N#Cc1cc([N+](=O)[O-])ccc1NC(=O)C(=O)Nc1n[nH]c(N)n1 | – | – | > 100 | > 100 | > 100 | > 100 | > 100 | > 100 | TGI [7]: > 100 µM |
| COc1ccc(/C=C/c2nccc3ccccc23)cc1OC | – | > 10 | – | – | – | – | – | – | TGI [9]: > 10 µM |
| C=CCOCCCCC(C(C)=O)C(=O)OC (stereo not drawn) | – | – | – | – | > 100 | > 100 | > 100 | > 100 | – |
| CC(C)(C)C1C=C(Sc2ccccc2)C(=O)O1 (stereo not drawn) | – | – | > 100 | > 100 | > 100 | > 100 | > 100 | – | – |
| O=C1CCC2(c3ccc(F)cc3)Nc3cc(Cl)ccc3N12 (stereo not drawn) | – | – | > 100 | > 100 | > 100 | > 100 | > 100 | 86.2 | – |
| O=C1c2cc(Cl)ccc2S(=O)(=O)c2c(NCCCNCCO)nc3ccccc3c21 | 2.68 | 14.9 | – | – | – | – | – | – | – |
| CC(C)C(=O)NC(=S)Nc1ccc([N+](=O)[O-])cc1C#N | – | – | > 100 | > 100 | > 100 | > 100 | > 100 | > 100 | TGI [7]: > 100 µM |
| CCOC(=O)C1=C(OC(OCC)C(CC)[Se]c2ccccc2)CCCC1 (stereo not drawn) | – | – | – | 29.2 | 37.3 | 91.8 | 33 | 46.5 | TGI [7]: 27.9 µM |
| OCc1c[nH]c2ccccc12 | 33.9 | > 100 | – | – | – | – | – | – | – |
| CCOc1cc2c(Cl)ncnc2c(OCC)c1OCC | 2.07 | 5.45 | – | – | – | – | – | – | – |
| CC1=CC(=Nc2ccc(N(CCCl)CCCl)cc2)C=C(C)C1=O | 2.08 | 7.73 | – | – | – | – | – | – | – |
| C[C@@H]1OC(O)[C@@H](F)[C@H](O)[C@@H]1O (stereo partly drawn) | > 100 | > 100 | – | – | – | – | – | – | – |
| O=C1CCC(=O)N2CCCCN12 | – | – | > 100 | > 100 | > 100 | > 100 | > 100 | – | TGI [7]: > 100 µM |
| Nc1nc(Cl)c2ncn(Cc3ccc(C45CC6CC(CC(C6)C4)C5)c(O)c3)c2n1 | 2.29 | 12.1 | – | – | – | – | – | – | – |
| COc1cc([N+](=O)[O-])cc2c3c(n(C)c12)[C@@]1(C)CCC2c4ccc(OCc5ccccc5)cc4CCC2C1C3 (stereo partly drawn) | > 100 | > 100 | – | – | – | – | – | – | – |
| COC12C=C(C)C(CC1)CC2C(=O)O (stereo not drawn) | – | – | – | > 100 | > 100 | > 100 | > 100 | > 100 | – |

| Structure (SMILES) | GI50 [1] [µM] | TGI [1] [µM] | TGI [2] [µM] | TGI [3] [µM] | TGI [4] [µM] | TGI [5] [µM] | TGI [6] [µM] | TGI [8] [µM] | further results |
| --- | --- | --- | --- | --- | --- | --- | --- | --- | --- |
| CC[C@@]1(O)C(=O)OCc2c1cc1n(c2=O)Cc2c-1nc1cc3c(cc1c2CCl)OCO3 | 1.29 | > 54.1 | – | – | – | – | – | – | GI50 [9]: < 0.01 µM; TGI [9]: 1.63 µM |
| N#Cc1ccc(O)c(C2=NCC(c3cccc(Oc4ccccc4)c3)O2)c1 (stereo not drawn) | 3.03 | > 100 | – | – | – | – | – | – | – |
| CCCn1cnc2c(SCc3ccccc3Cl)nc(N)nc21 | 40.4 | > 100 | – | – | – | – | – | – | – |
| CS(=O)(=O)c1ccc([C@H]2O[C@@H](CO)C[C@]2(O)c2ccc(S(C)(=O)=O)cc2)cc1 | > 100 | > 100 | – | – | – | – | – | – | – |
| CSC(C1c2ccccc2N(c2ccc(C)cc2)C2=NC(=O)N(C)C(=O)C21Cl)S(=O)(=O)c1ccc(C)cc1 (stereo not drawn) | – | – | 49.8 | 47.9 | 48.4 | 42.1 | 69.2 | 65.2 | – |
| COc1ccc(/C=C/CN(C)CCc2ccccc2)cc1OC | – | – | > 100 | > 100 | > 100 | > 100 | > 100 | – | – |
| CCC[CH2][Sn]1([CH2]CCC)[O]Cc2nc(C)ccc2[O]1 | – | – | 9.3 | 22.9 | 23.6 | 5.75 | 19.2 | 7.8 | GI50 [2]: 3.07 µM; GI50 [3]: 11 µM; GI50 [4]: 10.9 µM; GI50 [5]: 2.07 µM; GI50 [6]: 4.49 µM; GI50 [8]: 2.34 µM |
| COc1cc(C2=C(c3ccccc3)COC2=O)cc(OC)c1OC | 5.61 | > 90 | – | – | – | – | – | – | – |
| CC1(C)OC2[C@@H](CNC(=O)NC(=O)NC(=O)CI)O[C@@H](n3cnc4c(NC(=O)Nc5ccccc5)ncnc43)[C@H]2O1 (stereo partly drawn) | 12.5 | 37.8 | – | – | – | – | – | – | – |
| C=CCCCCCCCCC(=O)[O][Sn]([CH2]CCC)([CH2]CCC)[CH2]CCC | 0.166 | 0.493 | – | – | – | – | – | – | – |
| O=C(/C(Br)=C/c1ccccc1)c1ccccc1 | 8.12 | 52.4 | – | – | – | – | – | – | – |
| COC(=O)C1Cc2c(n(Cc3ccccc3)c3ccccc23)C(CCC(=O)O)N1C(C)C (stereo not drawn) | – | – | > 100 | > 100 | > 100 | > 100 | > 100 | – | TGI [7]: > 100 µM |
| O=C1O[C@@H](c2ccc3c(c2)OCO3)C2C(=O)O[C@@H](c3ccc4c(c3)OCO4)C12 (stereo partly drawn) | – | – | > 100 | > 100 | > 100 | – | > 100 | > 100 | TGI [7]: > 100 µM |
| CCC[CH2][Sn]([CH2]CCC)([O]C(=O)c1cccnc1SC)[O]C(=O)c1cccnc1SC | – | – | 0.829 | 2.26 | 3.51 | 0.238 | 1.57 | 2.5 | GI50 [2]: 0.128 µM; GI50 [3]: 1.07 µM; GI50 [4]: 1.7 µM; GI50 [5]: 0.059 µM; GI50 [6]: 0.36 µM; GI50 [8]: 1.25 µM |
| O=C1C2c3[nH]c4ccccc4c3C3CCCCCCC3C2C(=O)N1c1ccccc1 (stereo not drawn) | – | – | 17.5 | 29.8 | – | 33.8 | 37.2 | 10.7 | TGI [7]: 17.6 µM |
| CC(C)(CC(=O)Nc1ccccc1)C(=O)O | – | – | – | – | – | – | – | – | TGI [9]: > 100 µM |
| O=C(O)C(CO)NC(=O)n1c2ccccc2c2ccccc21 (stereo not drawn) | – | – | > 100 | > 100 | – | > 100 | > 100 | > 100 | – |
